# Activity calls are given as the source filed them. No cut-off for these calls is given here.
# Columns and labels:
# MV4-11 [1] = experiment: Induction of apoptosis in human MV4-11 cells assessed as viable cells at 3 micromol/L measured after 48 hrs by Annexin V-FITC/PI double staining based flow cytometry analysis (reference value: 89.13%); type: functional; details: MV4-11, 48 h, dose 3 µmol/L, read-out: Activity
# [2] = Metabolic stability in human liver microsomes assessed as half life measured up to 60 mins in presence of NADPH by LC-MS/MS analysis; type: ADME, Microsome
# [3] = AUC (0 to infinity) in male Sprague-Dawley rat at 1 mg/kg, iv measured up to 24 hrs by LC-MS/MS analysis; type: ADME, organism-based; details: in vivo
# MV4-11 [4] = experiment: Induction of apoptosis in human MV4-11 cells measured after 48 hrs by Annexin V-FITC/PI double staining based flow cytometry analysis; type: functional, cell-based; details: dose 2-4 µmol/L
# MV4-11 [5] = experiment: Induction of apoptosis in human MV4-11 cells assessed as necrotic cells at 2 micromol/L measured after 48 hrs by Annexin V-FITC/PI double staining based flow cytometry analysis (reference value: 1.16 %); type: functional; details: dose 2 µmol/L, at 2 µM
# MV4-11 [6] = experiment: Upregulation of CD86 expression in human MV4-11 cells incubated for 48 hrs by flow cytometry analysis; type: functional, cell-based; details: dose 2-4 µmol/L
# MV4-11 [7] = experiment: Induction of apoptosis in human MV4-11 cells assessed as early apoptotic cells at 2 micromol/L measured after 48 hrs by Annexin V-FITC/PI double staining based flow cytometry analysis (reference value: 2.01 %); type: functional; details: dose 2 µmol/L, at 2 µM
# [8] = molecular target: T1, Amine oxidase [flavin-containing] A (Homo sapiens, UniProt P21397); experiment: Inhibition of human N-terminal Flag-tagged MAOA extracted baculovirus infected in Sf9 cells measured after 0.5 hrs by MAO-Glo Assay
# T1 sequence (P21397 whole entry): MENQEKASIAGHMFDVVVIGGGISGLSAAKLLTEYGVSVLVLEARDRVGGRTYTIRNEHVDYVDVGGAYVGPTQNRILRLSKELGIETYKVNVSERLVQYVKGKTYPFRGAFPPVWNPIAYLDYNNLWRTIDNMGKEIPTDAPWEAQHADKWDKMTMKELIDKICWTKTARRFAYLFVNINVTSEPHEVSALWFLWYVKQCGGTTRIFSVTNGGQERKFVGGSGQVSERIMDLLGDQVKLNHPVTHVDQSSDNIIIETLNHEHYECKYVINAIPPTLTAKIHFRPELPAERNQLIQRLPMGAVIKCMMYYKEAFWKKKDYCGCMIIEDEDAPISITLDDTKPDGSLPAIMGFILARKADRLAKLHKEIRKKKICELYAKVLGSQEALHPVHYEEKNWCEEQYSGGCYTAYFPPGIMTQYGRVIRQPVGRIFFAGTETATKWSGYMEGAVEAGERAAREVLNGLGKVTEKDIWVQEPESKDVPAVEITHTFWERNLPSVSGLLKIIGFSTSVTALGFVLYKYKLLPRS
# [9] = Metabolic stability in mouse liver microsomes assessed as intrinsic clearance measured up to 60 mins in presence of NADPH by LC-MS/MS analysis; type: ADME, Microsome; details: read-out: CLH
# [10] = AUC (0 to t) in male Sprague-Dawley rat at 1 mg/kg, iv measured up to 24 hrs by LC-MS/MS analysis; type: ADME, organism-based; details: in vivo
# MV4-11 [11] = experiment: Induction of apoptosis in human MV4-11 cells assessed as late apoptotic cells at 4 micromol/L measured after 48 hrs by Annexin V-FITC/PI double staining based flow cytometry analysis (reference value: 7.70 %); type: functional; details: dose 4 µmol/L, at 4 µM
# [12] = Oral bioavailability in male Sprague-Dawley rat at 10 mg/kg measured up to 24 hrs by LC-MS/MS analysis; type: ADME, organism-based; details: in vivo
# MV4-11 [13] = experiment: Induction of apoptosis in human MV4-11 cells assessed as early apoptotic cells at 4 micromol/L measured after 48 hrs by Annexin V-FITC/PI double staining based flow cytometry analysis (reference value: 2.01 %); type: functional; details: dose 4 µmol/L, at 4 µM
# MV4-11 [14] = experiment: Antiproliferative activity against human MV4-11 cells assessed as inhibition of cell growth measured after 7 days by cell-titer glo assay; type: functional, cell-based; details: MV4-11, 168 h
# [15] = Metabolic stability in rat liver microsomes assessed as half life measured up to 60 mins in presence of NADPH by LC-MS/MS analysis; type: ADME, Microsome
# [16] = molecular target: T2, Lysine-specific histone demethylase 1A (Homo sapiens, UniProt O60341); experiment: Inhibition of LSD1 in human MV4-11 cells assessed as increase in H3K4me1 expression level at 2 to 4 micromol/L measured after 48 hrs by Western blot analysis; type: cell-based; details: dose 2-4 µmol/L
# MV4-11 [17] = experiment: Induction of apoptosis in human MV4-11 cells assessed as viable cells at 2 micromol/L measured after 48 hrs by Annexin V-FITC/PI double staining based flow cytometry analysis (reference value: 89.13%); type: functional; details: MV4-11, 48 h, dose 2 µmol/L, read-out: Activity
# MV4-11 [18] = experiment: Induction of apoptosis in human MV4-11 cells assessed as increase in cleaved caspase-3 level at 2 to 4 micromol/L measured after 72 hrs by Western blot analysis; type: functional, cell-based; details: dose 2-4 µmol/L
# MV4-11 [19] = experiment: Induction of apoptosis in human MV4-11 cells assessed as increase in cleaved PARP level at 2 to 4 micromol/L measured after 72 hrs by Western blot analysis; type: functional, cell-based; details: dose 2-4 µmol/L
# [20] = molecular target: Voltage-gated inwardly rectifying potassium channel KCNH2 (Homo sapiens, UniProt Q12809); experiment: Inhibition of human ERG by whole cell patch clamp assay; type: toxicity
# Sequence of Voltage-gated inwardly rectifying potassium channel KCNH2 (Q12809 whole entry): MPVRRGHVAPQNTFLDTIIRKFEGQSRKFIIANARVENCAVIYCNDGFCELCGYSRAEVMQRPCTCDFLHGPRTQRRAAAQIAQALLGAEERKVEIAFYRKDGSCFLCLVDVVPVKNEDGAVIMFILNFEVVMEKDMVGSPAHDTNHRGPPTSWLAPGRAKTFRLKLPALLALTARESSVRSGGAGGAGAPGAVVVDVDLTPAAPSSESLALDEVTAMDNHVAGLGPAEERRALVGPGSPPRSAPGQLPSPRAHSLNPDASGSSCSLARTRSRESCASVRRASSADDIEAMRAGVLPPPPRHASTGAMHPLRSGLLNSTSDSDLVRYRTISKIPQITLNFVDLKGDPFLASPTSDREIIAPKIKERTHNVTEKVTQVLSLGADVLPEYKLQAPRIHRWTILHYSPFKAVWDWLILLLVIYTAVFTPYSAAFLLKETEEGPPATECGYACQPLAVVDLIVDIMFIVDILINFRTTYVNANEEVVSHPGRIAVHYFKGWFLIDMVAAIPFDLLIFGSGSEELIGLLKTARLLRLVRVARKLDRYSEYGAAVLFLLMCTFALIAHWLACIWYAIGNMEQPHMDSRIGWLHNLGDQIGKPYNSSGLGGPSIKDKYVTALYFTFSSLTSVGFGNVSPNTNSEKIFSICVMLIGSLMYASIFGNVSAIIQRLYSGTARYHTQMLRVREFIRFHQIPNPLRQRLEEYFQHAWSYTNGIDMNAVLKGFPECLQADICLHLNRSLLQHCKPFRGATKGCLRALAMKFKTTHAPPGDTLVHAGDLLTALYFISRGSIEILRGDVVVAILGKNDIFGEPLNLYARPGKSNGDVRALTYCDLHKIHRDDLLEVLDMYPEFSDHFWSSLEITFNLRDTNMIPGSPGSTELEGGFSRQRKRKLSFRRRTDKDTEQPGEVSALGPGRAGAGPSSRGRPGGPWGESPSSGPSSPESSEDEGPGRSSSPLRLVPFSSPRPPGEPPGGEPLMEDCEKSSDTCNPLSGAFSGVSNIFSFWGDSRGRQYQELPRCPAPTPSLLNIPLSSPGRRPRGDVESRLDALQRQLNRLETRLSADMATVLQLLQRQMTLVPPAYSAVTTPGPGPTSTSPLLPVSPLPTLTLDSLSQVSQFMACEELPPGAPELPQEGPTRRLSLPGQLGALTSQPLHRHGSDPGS
# [21] = molecular target: T2, Lysine-specific histone demethylase 1A; experiment: Inhibition of LSD1 in human MV4-11 cells assessed as increase in H3K4me2 expression level at 2 to 4 micromol/L measured after 48 hrs by Western blot analysis; type: cell-based; details: dose 2-4 µmol/L
# MV4-11 [22] = experiment: Induction of apoptosis in human MV4-11 cells assessed as necrotic cells at 4 micromol/L measured after 48 hrs by Annexin V-FITC/PI double staining based flow cytometry analysis (reference value: 1.16 %); type: functional; details: dose 4 µmol/L, at 4 µM
# [23] = AUC (0 to infinity) in male Sprague-Dawley rat at 10 mg/kg, po measured up to 24 hrs by LC-MS/MS analysis; type: ADME, organism-based; details: in vivo
# [24] = Octanol-water partition coefficient, logP of the compound; type: physicochemical
# [25] = Clearance in male Sprague-Dawley rat at 1 mg/kg, iv measured up to 24 hrs by LC-MS/MS analysis; type: ADME, organism-based; details: in vivo
compound,measurement,setting,value
Cl.O=S(=O)(c1ccccc1)n1ncc2cc(-n3cc(CN[C@@H]4C[C@H]4c4ccc(F)c(F)c4)nn3)ccc21,viability at 3 µM,MV4-11 [1],80.8%
same,half-life,[2],11.6 min
same,AUC(0-inf),[3],483 ng·h/mL
same,Activity,MV4-11 [4],Dose-dependent-effect
same,Activity,MV4-11 [5],3.32%
same,Activity,MV4-11 [6],Dose-dependent-effect
same,Activity,MV4-11 [7],2.52%
same,IC50,[8],840 nM
same,CLint scaled,[9],261 mL/min/kg
same,AUC(0-t) at 24 h,[10],481 ng·h/mL
same,Activity,MV4-11 [11],15.39%
same,bioavailability,[12],6.01%
same,Activity,MV4-11 [13],4.28%
same,IC50,MV4-11 [14],1400 nM
same,half-life,[15],3.94 min
same,inhibition,[16],Active
same,viability at 2 µM,MV4-11 [17],80.4%
same,Activity,MV4-11 [18],Active
same,Activity,MV4-11 [19],Active
same,IC50,[20],576 nM
same,inhibition,[21],Active
same,Activity,MV4-11 [22],2.91%
same,AUC(0-inf),[23],290 ng·h/mL
same,logP,[24],4.2
same,clearance,[25],35.3 mL/min/kg
